Assay results from PubChem BioAssay (NCI).
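Where inhibition never reached the appropriate level, the endpoint shown equals the highest concentration tested. Otherwise, values were interpolated linearly from a five-concentration, 48-hour dose response in 96-well plates. GI50 = concentration required for 50% inhibition of growth. TGI denotes the concentration required for complete inhibition of growth.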

Experiments:
Assay in all cases: inhibition of tumour cell growth, NCI panel, 48 h
[1] = test system: OVCAR-3 ovarian
[2] = test system: NCI/ADR-RES ovarian
[3] = test system: TK-10 renal
[4] = test system: EKVX NSCLC
[5] = test system: NCI-H23 lung
[6] = test system: U251 CNS
[7] = test system: OVCAR-8 ovarian
[8] = test system: ACHN renal
[9] = test system: SF-539 CNS
[10] = test system: BT-549 breast
[11] = test system: UACC-257 melanoma
[12] = test system: SF-295 CNS
[13] = test system: SNB-75 CNS
[14] = test system: OVCAR-4 ovarian
[15] = test system: COLO 205 colon
[16] = test system: NCI-H226 lung
[17] = test system: PC-3 prostate
[18] = test system: SN12C renal
[19] = test system: M14 melanoma
[20] = test system: RPMI-8226 leukemia
[21] = test system: DU-145 prostate
[22] = test system: HOP-92 NSCLC
[23] = test system: LOX IMVI melanoma
[24] = test system: A549 NSCLC
[25] = test system: SK-MEL-2 melanoma
[26] = test system: HOP-62 NSCLC
[27] = test system: UACC-62 melanoma
[28] = test system: HCT-15 colon
[29] = test system: MCF7 breast
[30] = test system: HS 578T breast
[31] = test system: K-562 leukemia
[32] = test system: HCC-2998 colon
[33] = test system: MDA-MB-231 breast
[34] = test system: 786-0 renal
[35] = test system: MDA-MB-435
[36] = test system: OVCAR-5 ovarian
[37] = test system: SNB-19 CNS
[38] = test system: HT29 colon
[39] = test system: SK-MEL-28 melanoma
[40] = test system: HCT-116 colon
[41] = test system: T-47D breast
[42] = test system: SF-268 CNS
[43] = test system: NCI-H460 lung
[44] = test system: CAKI-1 renal
[45] = test system: A498 renal
[46] = test system: SK-OV-3 ovarian
[47] = test system: UO-31 renal
[48] = test system: IGROV1 ovarian
[49] = test system: MOLT-4 leukemia
[50] = test system: KM12 colon
[51] = test system: RXF 393 renal
[52] = test system: CCRF-CEM leukemia
[53] = test system: SW-620 colon
[54] = test system: SK-MEL-5 melanoma
[55] = test system: NCI-H522 lung

ClCc1cccc(Cn2cnc3c(Cl)ncnc32)c1
GI50 [1]: 1.63 µM
TGI [1]: 3.05 µM
GI50 [2]: 2.43 µM
TGI [2]: 7.62 µM
GI50 [3]: 4.59 µM
TGI [3]: 16.1 µM
GI50 [4]: 18.6 µM
TGI [4]: 34.1 µM
GI50 [5]: 1.92 µM
TGI [5]: 4.07 µM
GI50 [6]: 1.8 µM
TGI [6]: 3.48 µM
GI50 [7]: 22.1 µM
TGI [7]: 42 µM
GI50 [8]: 2.08 µM
TGI [8]: 4.09 µM
GI50 [9]: 20.1 µM
TGI [9]: 35.3 µM
GI50 [10]: 15.3 µM
TGI [10]: 30.2 µM
GI50 [11]: 20.2 µM
TGI [11]: 37.1 µM
GI50 [12]: 3.25 µM
TGI [12]: 8.68 µM
GI50 [13]: 2.09 µM
TGI [13]: 4.56 µM
GI50 [14]: 2.35 µM
TGI [14]: 5.69 µM
GI50 [15]: 3.09 µM
TGI [15]: 10.5 µM
GI50 [16]: 2.15 µM
TGI [16]: 4.38 µM
GI50 [17]: 4.18 µM
TGI [17]: 18.3 µM
GI50 [18]: 2.32 µM
TGI [18]: 5.13 µM
GI50 [19]: 1.66 µM
TGI [19]: 3.31 µM
GI50 [20]: 3.82 µM
TGI [20]: 16.1 µM
GI50 [21]: 11.2 µM
TGI [21]: 24 µM
GI50 [22]: 2.46 µM
TGI [22]: 6.22 µM
GI50 [23]: 1.96 µM
TGI [23]: 5.02 µM
GI50 [24]: 19.4 µM
TGI [24]: 39.4 µM
GI50 [25]: 22.1 µM
TGI [25]: 51.1 µM
GI50 [26]: 2.6 µM
TGI [26]: 5.11 µM
GI50 [27]: 1.82 µM
TGI [27]: 3.4 µM
GI50 [28]: 2.17 µM
TGI [28]: 4.64 µM
GI50 [29]: 7.8 µM
TGI [29]: 77.7 µM
GI50 [30]: 3.48 µM
TGI [30]: 11.5 µM
GI50 [31]: 3.56 µM
TGI [31]: 15.2 µM
GI50 [32]: 0.407 µM
TGI [32]: 1.75 µM
GI50 [33]: 1.99 µM
TGI [33]: 4.04 µM
GI50 [34]: 6.17 µM
TGI [34]: 19.7 µM
GI50 [35]: 1.69 µM
TGI [35]: 3.29 µM
GI50 [36]: 2.08 µM
TGI [36]: 4.32 µM
GI50 [37]: 2.66 µM
TGI [37]: 12.5 µM
GI50 [38]: 3.25 µM
TGI [38]: > 100 µM
GI50 [39]: 2.23 µM
TGI [39]: 5.69 µM
GI50 [40]: 1.48 µM
TGI [40]: 3.07 µM
GI50 [41]: 3.02 µM
TGI [41]: 12.3 µM
GI50 [42]: 3.53 µM
TGI [42]: 15.3 µM
GI50 [43]: 11.7 µM
TGI [43]: 36 µM
GI50 [44]: 1.53 µM
TGI [44]: 2.93 µM
GI50 [45]: 17.3 µM
TGI [45]: 31.9 µM
GI50 [46]: 3.31 µM
TGI [46]: 10.6 µM
GI50 [47]: 14.4 µM
TGI [47]: 35.9 µM
GI50 [48]: 9.31 µM
TGI [48]: 33.5 µM
GI50 [49]: 15.8 µM
TGI [49]: 37.4 µM
GI50 [50]: 3.47 µM
TGI [50]: 13.4 µM
GI50 [51]: 2.28 µM
TGI [51]: 24 µM
GI50 [52]: 1.91 µM
TGI [52]: 3.85 µM
GI50 [53]: 2.12 µM
TGI [53]: 4.33 µM
GI50 [54]: 2.3 µM
TGI [54]: 6.38 µM
GI50 [55]: 18.6 µM
TGI [55]: 65.4 µM
